Experimental data as given in patent US12098148B2, “Therapeutic compounds” (C4X Discovery Limited, priority 2018, dated 2024).
Where two headings read alike, the source gives them in different places.

Legend:
[1] = tested on: NQO1 mRNA in BEAS-2B cells; experiment: Beas2B NQO1 mRNA cell based assay; parameters: species or system human; conditions: Homo sapiens, 24 h compound treatment, increase in NQO1 mRNA vs vehicle (0.1% DMSO), read-out: EC50
Method in brief: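 BEAS-2B human bronchial epithelial cells exposed to compound for 24 h at 37 °C, 5% CO2. NQO1 mRNA measured by one-step TaqMan RT-qPCR on unpurified lysates, normalized to β-actin; relative expression by ΔΔCT method.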

[2] = target: human KEAP1 (N-term, residues 321-609) (Homo sapiens, UniProt Q14145); experiment: biochemical;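 further: fluorescence polarization competition assay of Kelch domain binding to NRF2, 12-point 1:3 dilution series from 10 µM, read after 1 h at room temperature, floor 10 nM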
Sequence of human KEAP1 (N-term, residues 321-609) (Q14145 321-609): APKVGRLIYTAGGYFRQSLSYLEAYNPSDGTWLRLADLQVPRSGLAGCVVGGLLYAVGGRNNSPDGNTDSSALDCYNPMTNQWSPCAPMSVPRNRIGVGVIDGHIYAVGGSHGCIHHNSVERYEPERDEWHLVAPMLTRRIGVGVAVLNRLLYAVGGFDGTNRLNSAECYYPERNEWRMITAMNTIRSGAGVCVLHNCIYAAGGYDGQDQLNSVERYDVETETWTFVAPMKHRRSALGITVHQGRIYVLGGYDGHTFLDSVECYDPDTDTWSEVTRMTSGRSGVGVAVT

Row | Compound | IC50 [2] | EC50 ([1]; BEAS-2B, 24 h) | EC50 [1]
1 | Cn1nnc(COc2ccc(Cl)c3c2[C@@H](CN2CC4(CC4)CC2=O)N(C(=O)[C@@H]2C[C@H]4C[C@H]4C[C@]2(C)C(=O)O)CC3)c1C(F)F [Example 208, (1S,3S,4R,6R)-4-((S)-5-chloro-8-((5-(difluoromethyl)-1-methyl-1H-1,2,3-triazol-4-yl)methoxy)-1-((6-oxo-5-azaspiro[2.4]heptan-5-yl)methyl)-1,2,3,4-tetrahydroisoquinoline-2-carbonyl)-3-methylbicyclo[4.1.0]heptane-3-carboxylic acid] | 580 nM | 3300 nM | –
2 | Cc1cc(COc2ccc(Cl)c3c2[C@@H](CN2Cc4ccccc4C2=O)N(C(=O)[C@@H]2CCCC[C@@H]2C(=O)O)CC3)no1 [Example 49, (1S,2R)-2-((S)-5-chloro-8-((5-methylisoxazol-3-yl)methoxy)-1-((1-oxoisoindolin-2-yl)methyl)-1,2,3,4-tetrahydroisoquinoline-2-carbonyl)cyclohexane-1-carboxylic acid] | 11 nM | 19 nM | –
3 | C[C@@H]1CC(=O)N(C[C@@H]2c3c(OCc4nnn(C)c4C(F)F)ccc(Cl)c3CCN2C(=O)[C@H]2CCCC[C@]2(C)C(=O)O)C1 [Example 149, (1S,2S)-2-((S)-5-chloro-8-((5-(difluoromethyl)-1-methyl-1H-1,2,3-triazol-4-yl)methoxy)-1-(((R)-4-methyl-2-oxopyrrolidin-1-yl)methyl)-1,2,3,4-tetrahydroisoquinoline-2-carbonyl)-1-methylcyclohexane-1-carboxylic acid] | 28 nM | 73 nM | –
4 | Cn1nnc(COc2c(F)cc(Cl)c3c2[C@@H](CN2CCCC2=O)N(C(=O)[C@@H]2CCCC[C@]2(C)C(=O)O)CC3)c1C(F)F [Example 147, (1S,2R)-2-((S)-5-chloro-8-((5-(difluoromethyl)-1-methyl-1H-1,2,3-triazol-4-yl)methoxy)-7-fluoro-1-((2-oxopyrrolidin-1-yl)methyl)-1,2,3,4-tetrahydroisoquinoline-2-carbonyl)-1-methylcyclohexane-1-carboxylic acid] | 5.1 nM | 0.29 nM | –
5 | O=C(O)[C@H]1CCCC[C@H]1C(=O)N1CCc2c(Cl)ccc(OCc3nnc4ccccn34)c2[C@H]1CN1Cc2ccccc2C1=O [Example 50] | 7.7 nM | 2 nM | –
6 | Cc1ncc(C(=O)N2CC[C@H](Oc3ccc(Br)c4c3[C@@H](CN3Cc5ccccc5C3=O)N(C(=O)[C@@H]3CCCC[C@@H]3C(=O)O)CC4)C2)s1 [Example 20, (1S,2R)-2-((S)-5-Bromo-8-(((S)-1-(2-methylthiazole-5-carbonyl)-pyrrolidin-3-yl)oxy)-1-((1-oxoisoindolin-2-yl)methyl)-1,2,3,4-tetrahydroisoquinoline-2-carbonyl)cyclohexane-1-carboxylic acid] | 5.4 nM | 20 nM | –
7 | O=C(O)[C@H]1CCCC[C@H]1C(=O)N1CCc2c(Cl)ccc(OCc3cn4cccnc4n3)c2[C@H]1CN1CCCC1=O [Example 92, (1S,2R)-2-((S)-5-Chloro-8-(imidazo[1,2-a]pyrimidin-2-ylmethoxy)-1-((2-oxopyrrolidin-1-yl)methyl)-1,2,3,4-tetrahydroisoquinoline-2-carbonyl) cyclohexane-1-carboxylic acid] | 15 nM | 180 nM | –
8 | C[C@@H]1CC(=O)N(C[C@@H]2c3c(OCc4nnn(C)c4C(F)F)ccc(Cl)c3CCN2C(=O)[C@@H]2CCC[C@]2(C)C(=O)O)C1 [Example 109, (1S,2R)-2-((S)-5-Chloro-8-((5-(difluoromethyl)-1-methyl-1H-1,2,3-triazol-4-yl)methoxy)-1-(((R)-4-methyl-2-oxopyrrolidin-1-yl)methyl)-1,2,3,4-tetrahydroisoquinoline-2-carbonyl)-1-methylcyclopentane-1-carboxylic acid] | 9.7 nM | 7.4 nM | –
9 | O=C(O)[C@H]1CCCC[C@H]1C(=O)N1CCc2c(Br)ccc(O[C@H]3CCN(C(=O)c4cncs4)C3)c2[C@H]1CN1CCCC1=O [Example 63, (1S,2R)-2-((S)-5-bromo-1-((2-oxopyrrolidin-1-yl)methyl)-8-(((S)-1-(thiazole-5-carbonyl)pyrrolidin-3-yl)oxy)-1,2,3,4-tetrahydroisoquinoline-2-carbonyl)cyclohexane-1-carboxylic acid] | 9.1 nM | 84 nM | –
10 | Cc1cnn(C[C@@H]2c3c(OCc4nnn(C)c4C(F)F)ccc(Cl)c3CCN2C(=O)[C@@H]2CCCC[C@@H]2C(=O)O)c1 [Example 84, (1S,2R)-2-((S)-5-chloro-8-((5-(difluoromethyl)-1-methyl-1H-1,2,3-triazol-4-yl)methoxy)-1-((4-methyl-1H-pyrazol-1-yl)methyl)-1,2,3,4-tetrahydroisoquinoline-2-carbonyl)cyclohexane-1-carboxylic acid] | 6.1 nM | – | 36 nM

Further lines, with some results ahead:

Row | IC50 [2] | Compound | EC50 ([1]; BEAS-2B, 24 h) | EC50 [1]
11 | 9.3 nM | Cc1onc(COc2ccc(Cl)c3c2[C@@H](CN2CC4(CC4)CC2=O)N(C(=O)[C@@H]2CCCC[C@]2(C)C(=O)O)CC3)c1C(F)(F)F [Example 154, (1S,2R)-2-((S)-5-chloro-8-((5-methyl-4-(trifluoromethyl)isoxazol-3-yl)methoxy)-1-((6-oxo-5-azaspiro[2.4]heptan-5-yl)methyl)-1,2,3,4-tetrahydroisoquinoline-2-carbonyl)-1-methylcyclohexane-1-carboxylic acid] | 18 nM | –
12 | 5.3 nM | [2H][C@@H]1CC[C@](C)(C(=O)O)[C@H](C(=O)N2CCc3c(Cl)ccc(OCc4nnn(C)c4C(F)F)c3[C@H]2CN2CC3(CC3)CC2=O)C1 [Example 219, (1S,2R,4R)-2-((S)-5-chloro-8-((5-(difluoromethyl)-1-methyl-1H-1,2,3-triazol-4-yl)methoxy)-1-((6-oxo-5-azaspiro[2.4]heptan-5-yl)methyl)-1,2,3,4-tetrahydroisoquinoline-2-carbonyl)-1-methylcyclohexane-1-carboxylic-4-d acid] | 0.18 nM | –
13 | 5.3 nM | Cc1nnc(COc2ccc(Cl)c3c2[C@@H](CN2CC4(CC4)CC2=O)N(C(=O)[C@@H]2CCCC[C@]2(C)C(=O)O)CC3)n1C [Example 179, (1S,2R)-2-((S)-5-chloro-8-((4,5-dimethyl-4H-1,2,4-triazol-3-yl)methoxy)-1-((6-oxo-5-azaspiro[2.4]heptan-5-yl)methyl)-1,2,3,4-tetrahydroisoquinoline-2-carbonyl)-1-methylcyclohexane-1-carboxylic acid] | 4.1 nM | –
14 | 7.5 nM | Cc1cc(COc2ccc(Cl)c3c2[C@@H](CN2CCCC2=O)N(C(=O)[C@@H]2CCCC[C@]2(C)C(=O)O)CC3)no1 [Example 166, (1S,2R)-2-((S)-5-chloro-8-((5-methylisoxazol-3-yl)methoxy)-1-((2-oxopyrrolidin-1-yl)methyl)-1,2,3,4-tetrahydroisoquinoline-2-carbonyl)-1-methylcyclohexane-1-carboxylic acid] | 40 nM | –
15 | 5.8 nM | Cn1nnc(COc2ccc(Cl)c3c2[C@@H](CN2CC4(CC4)CC2=O)N(C(=O)[C@@H]2CC[C@@H](O)C[C@]2(C)C(=O)O)CC3)c1C(F)F [Example 224, (1S,2R,5R)-2-((S)-5-chloro-8-((5-(difluoromethyl)-1-methyl-1H-1,2,3-triazol-4-yl)methoxy)-1-((6-oxo-5-azaspiro[2.4]heptan-5-yl)methyl)-1,2,3,4-tetrahydroisoquinoline-2-carbonyl)-5-hydroxy-1-methylcyclohexane-1-carboxylic acid] | 42 nM | –
16 | 6.2 nM | Cn1nnc(COc2c(F)cc(Cl)c3c2[C@@H](CN2CC4(CC4)CC2=O)N(C(=O)[C@@H]2CCCC[C@]2(C)C(=O)O)CC3)c1C(F)F [Example 203, (1S,2R)-2-((S)-5-chloro-8-((5-(difluoromethyl)-1-methyl-1H-1,2,3-triazol-4-yl)methoxy)-7-fluoro-1-((6-oxo-5-azaspiro[2.4]heptan-5-yl)methyl)-1,2,3,4-tetrahydroisoquinoline-2-carbonyl)-1-methylcyclohexane-1-carboxylic acid] | 0.4 nM | –
17 | 6 nM | C[C@]1(C(=O)O)CCCC[C@H]1C(=O)N1CCc2c(Cl)ccc(O[C@H]3CCN(S(C)(=O)=O)C3)c2[C@H]1CN1CC2(CC2)CC1=O [Example 187, (1S,2R)-2-((S)-5-chloro-8-(((S)-1-(methylsulfonyl)pyrrolidin-3-yl)oxy)-1-((6-oxo-5-azaspiro[2.4]heptan-5-yl)methyl)-1,2,3,4-tetrahydroisoquinoline-2-carbonyl)-1-methylcyclohexane-1-carboxylic acid] | 43 nM | –
18 | 3.3 nM | Cn1nnc(COc2ccc(Cl)c3c2[C@@H](CN2CC4(CC4)CC2=O)N(C(=O)[C@@H]2CC=CC[C@]2(C)C(=O)O)CC3)c1C(F)F [Example 201, (1S,6R)-6-((S)-5-chloro-8-((5-(difluoromethyl)-1-methyl-1H-1,2,3-triazol-4-yl)methoxy)-1-((6-oxo-5-azaspiro[2.4]heptan-5-yl)methyl)-1,2,3,4-tetrahydroisoquinoline-2-carbonyl)-1-methylcyclohex-3-ene-1-carboxylic acid] | 0.33 nM | –
19 | 6.3 nM | Cn1cc(COc2ccc(Cl)c3c2[C@@H](CN2CC4(CC4)CC2=O)N(C(=O)[C@@H]2CCCC[C@]2(C)C(=O)O)CC3)nn1 [Example 158, (1S,2R)-2-((S)-5-chloro-8-((1-methyl-1H-1,2,3-triazol-4-yl)methoxy)-1-((6-oxo-5-azaspiro[2.4]heptan-5-yl)methyl)-1,2,3,4-tetrahydroisoquinoline-2-carbonyl)-1-methylcyclohexane-1-carboxylic acid] | 1.2 nM | –
